Test results reported in US11753407B2, “Compounds for treating spinal muscular atrophy” (PTC Therapeutics, Inc., priority 2012, dated 2023).

Experiments:
[1] = system: Smn protein in SMA patient fibroblast cells (GM03813); assay: Smn protein assay in cultured cells (SMN HTRF); format: cell-based, human; details: SMA patient fibroblast cells, 48 hours; for EC1.5x for Smn protein expression: 7-point concentration curve, SMN HTRF, concentration producing 1.5 times Smn protein vs DMSO vehicle control; for maximum fold (Fold) increase of Smn protein: 7-point concentration data, fold relative to vehicle control
Method in brief: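 Read-out: HTRF 665/620 nm ratio, blank-subtracted as ΔF, then expressed as fold over DMSO vehicle. Fibroblasts from SMA patients were exposed to compounds for 48 h (7 points, 3.16-fold steps, triplicates). Values are EC1.5× and maximum fold Smn increase.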

[2] = system: SMN2 minigene mRNA (SMN2-A minigene) in HEK293H cells; assay: SMN2 minigene mRNA splicing RT-qPCR assay in cultured cells; format: cell-based, human; details: Homo sapiens, HEK293-H; concentration increasing full length SMN2 mRNA 1.5-fold relative to vehicle-treated cells; HEK293H cells with SMN2-A minigene, 24 hours, 7-point concentration data; read-out: EC1.5x for production of full length SMN2 mRNA
Method in brief: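 Read-out: minigene-specific full-length (exon 7-included) SMN2 mRNA by one-step multiplex RT-qPCR, normalized to GAPDH and divided by vehicle-treated level. Stable SMN2-A minigene HEK293H cells, 24 h compound exposure, 7 concentrations in duplicate. EC1.5× = concentration raising FL mRNA 1.5-fold.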

Compound | EC1.5x for Smn protein expression [1] | maximum fold (Fold) increase of Smn protein [1] | melting point [°C] | EC (1.5-fold increase) [2] [µM]
Cc1nc2ccc(-c3cc(=O)n4cc(N5CCN(C)[C@@H](C)C5)ccc4n3)cc2o1 [Compound 234, 7-[(3S)-3,4-dimethylpiperazin-1-yl]-2-(2-methyl-1,3-benzoxazol-6-yl)-4H-pyrido[1,2-a]pyrimidin-4-one] | **** (an EC1.5x≤0.3 μM is indicated by four stars (****)) | ***** (a fold increase >1.65 is indicated by five stars (*****)) | 205 to 209 | < 0.1
COc1ccc(-c2cc(=O)n3cc(O[C@H]4CCNC4)ccc3n2)cc1OC [Compound 236, 2-(3,4-dimethoxyphenyl)-7-[(3S)-pyrrolidin-3-yloxy]-4H-pyrido[1,2-a]pyrimidin-4-one] | * (An EC1.5× for Smn protein expression between >3 μM and ≤10 μM is indicated by one star (*)) | *** (a fold increase between >1.35 and ≤1.5 is indicated by three stars (***)) | 164 to 166 | 1 to 3
COc1ccc(-c2cc(=O)n3cc(N4CCCNCC4)cc(C)c3n2)cc1OC [Compound 238, 7-(1,4-diazepan-1-yl)-2-(3,4-dimethoxyphenyl)-9-methyl-4H-pyrido[1,2-a]pyrimidin-4-one] |  | ** (a fold increase between >1.2 and ≤1.35 is indicated by two stars (**)) | 160 to 177 | 0.3 to 1
Cc1nc2ccc(-c3cc(=O)n4cc(N5CCC(N(C)C)CC5)ccc4n3)cc2o1 [Compound 240, 7-[4-(dimethylamino)piperidin-1-yl]-2-(2-methyl-1,3-benzoxazol-6-yl)-4H-pyrido[1,2-a]pyrimidin-4-one] | **** (an EC1.5x≤0.3 μM is indicated by four stars (****)) | **** (a fold increase between >1.5 and ≤1.65 is indicated by four stars (****)) | 206 to 210 | < 0.1
Cc1nc2ccc(-c3cc(=O)n4cc(N5CC[C@H](N(C)C)C5)ccc4n3)cc2o1 [Compound 241, 7-[(3S)-3-(dimethylamino)pyrrolidin-1-yl]-2-(2-methyl-1,3-benzoxazol-6-yl)-4H-pyrido[1,2-a]pyrimidin-4-one] | **** (an EC1.5x≤0.3 μM is indicated by four stars (****)) | ***** (a fold increase >1.65 is indicated by five stars (*****)) | 189 to 193 | 0.1 to 0.3
Cc1nc2ccc(-c3cc(=O)n4cc(N5CCN(C)[C@H](C)C5)ccc4n3)cc2o1 [Compound 244, 7-[(3R)-3,4-dimethylpiperazin-1-yl]-2-(2-methyl-1,3-benzoxazol-6-yl)-4H-pyrido[1,2-a]pyrimidin-4-one] | **** (an EC1.5x≤0.3 μM is indicated by four stars (****)) | **** (a fold increase between >1.5 and ≤1.65 is indicated by four stars (****)) | 181 to 187 | < 0.1
COc1ccc(-c2cc(=O)n3cc(N4C[C@H]5CCN(C)[C@H]5C4)ccc3n2)cc1F [Compound 246, 2-(3-fluoro-4-methoxyphenyl)-7-[(3aR,6aR)-1-methylhexahydropyrrolo[3,4-b]pyrrol-5(1H)-yl]-4H-pyrido[1,2-a]pyrimidin-4-one] |  | * (A maximum fold increase of ≤1.2 is indicated by one star (*)) | 205 to 209 | 1 to 3
COc1ccc(-c2cc(=O)n3cc(C4=CCNCC4)cc(C)c3n2)cc1OC [Compound 247, 2-(3,4-dimethoxyphenyl)-9-methyl-7-(1,2,3,6-tetrahydropyridin-4-yl)-4H-pyrido[1,2-a]pyrimidin-4-one] | **** (an EC1.5x≤0.3 μM is indicated by four stars (****)) | ***** (a fold increase >1.65 is indicated by five stars (*****)) | 186 to 191 | < 0.1
COc1ccc(-c2cc(=O)n3cc(C4=CCN(CCO)CC4)ccc3n2)cc1OC [Compound 248, 2-(3,4-dimethoxyphenyl)-7-[1-(2-hydroxyethyl)-1,2,3,6-tetrahydropyridin-4-yl]-4H-pyrido[1,2-a]pyrimidin-4-one] | *** (an EC1.5× between >0.3 μM and ≤1 μM is indicated by three stars (***)) | **** (a fold increase between >1.5 and ≤1.65 is indicated by four stars (****)) | 134 to 137 | 0.3 to 1
COc1ccc(-c2cc(=O)n3cc(C4CCNCC4)cc(C)c3n2)cc1OC [Compound 250, 2-(3,4-dimethoxyphenyl)-9-methyl-7-(piperidin-4-yl)-4H-pyrido[1,2-a]pyrimidin-4-one] | **** (an EC1.5x≤0.3 μM is indicated by four stars (****)) | ***** (a fold increase >1.65 is indicated by five stars (*****)) | 176 to 181 | < 0.1
COc1ccc(-c2cc(=O)n3cc(C4=CCN(C)CC4)cc(C)c3n2)cc1OC [Compound 251, 2-(3,4-dimethoxyphenyl)-9-methyl-7-(1-methyl-1,2,3,6-tetrahydropyridin-4-yl)-4H-pyrido[1,2-a]pyrimidin-4-one] | **** (an EC1.5x≤0.3 μM is indicated by four stars (****)) | ***** (a fold increase >1.65 is indicated by five stars (*****)) | 187 to 196 | < 0.1
COc1ccc(-c2cc(=O)n3cc(C4CCN(C)CC4)cc(C)c3n2)cc1OC [Compound 252, 2-(3,4-dimethoxyphenyl)-9-methyl-7-(1-methylpiperidin-4-yl)-4H-pyrido[1,2-a]pyrimidin-4-one] | *** (an EC1.5× between >0.3 μM and ≤1 μM is indicated by three stars (***)) | **** (a fold increase between >1.5 and ≤1.65 is indicated by four stars (****)) | 170 to 174 | 0.1 to 0.3
Cc1nc2ccc(-c3cc(=O)n4cc(N5CCCNCC5)ccc4n3)cc2s1 [Compound 253, 7-(1,4-diazepan-1-yl)-2-(2-methyl-1,3-benzothiazol-6-yl)-4H-pyrido[1,2-a]pyrimidin-4-one] |  | * (A maximum fold increase of ≤1.2 is indicated by one star (*)) | 205 to 207 | 1 to 3
Cc1nc2ccc(-c3cc(=O)n4cc(N5CCCN(C)CC5)ccc4n3)cc2s1 [Compound 254, 2-(2-methyl-1,3-benzothiazol-6-yl)-7-(4-methyl-1,4-diazepan-1-yl)-4H-pyrido[1,2-a]pyrimidin-4-one] | ** (an EC1.5× between >1 μM and ≤3 μM is indicated by two stars (**)) | *** (a fold increase between >1.35 and ≤1.5 is indicated by three stars (***)) | 158 to 160 | 0.1 to 0.3
Cc1nc2ccc(-c3cc(=O)n4cc(N5CCN6CCC[C@H]6C5)ccc4n3)cc2s1 [Compound 255, 7-[(8aS)-hexahydropyrrolo[1,2-a]pyrazin-2(1H)-yl]-2-(2-methyl-1,3-benzothiazol-6-yl)-4H-pyrido[1,2-a]pyrimidin-4-one] |  | ** (a fold increase between >1.2 and ≤1.35 is indicated by two stars (**)) | 250 to 260 | 0.3 to 1
Cc1nc2ccc(-c3cc(=O)n4cc(N5CCN(C)CC5)ccc4n3)cc2s1 [Compound 256, 2-(2-methyl-1,3-benzothiazol-6-yl)-7-(4-methylpiperazin-1-yl)-4H-pyrido[1,2-a]pyrimidin-4-one] | ** (an EC1.5× between >1 μM and ≤3 μM is indicated by two stars (**)) | **** (a fold increase between >1.5 and ≤1.65 is indicated by four stars (****)) | 230 to 234 | 0.3 to 1
COc1ccc(-c2cc(=O)n3cc(N4C[C@H]5CNC[C@H]5C4)cc(C)c3n2)cc1OC [Compound 257, 2-(3,4-dimethoxyphenyl)-7-[(3aR,6aS)-hexahydropyrrolo[3,4-c]pyrrol-2(1H)-yl]-9-methyl-4H-pyrido[1,2-a]pyrimidin-4-one] | ** (an EC1.5× between >1 μM and ≤3 μM is indicated by two stars (**)) | **** (a fold increase between >1.5 and ≤1.65 is indicated by four stars (****)) | 215 | < 0.1
Cc1cn2nc(-c3cc(=O)n4cc(N5CCN(C)[C@@H](C)C5)ccc4n3)cc2c(C)n1 [Compound 258, 7-[(3S)-3,4-dimethylpiperazin-1-yl]-2-(4,6-dimethylpyrazolo[1,5-a]pyrazin-2-yl)-4H-pyrido[1,2-a]pyrimidin-4-one] | *** (an EC1.5× between >0.3 μM and ≤1 μM is indicated by three stars (***)) | **** (a fold increase between >1.5 and ≤1.65 is indicated by four stars (****)) | 220 to 223 | < 0.1
